# Measurements as given in BindingDB's records for doi:10.1021/bi401014k (Texas A&M University, 2013).
# pKi: −log10 of the molar value.
# Columns and labels:
# Assay in all cases: ANS Fluorescence Displacement Assay
# [1] = biological target: T1, Fatty acid-binding protein, liver (Homo sapiens, UniProt P07148)
# T1 sequence (P07148 whole entry): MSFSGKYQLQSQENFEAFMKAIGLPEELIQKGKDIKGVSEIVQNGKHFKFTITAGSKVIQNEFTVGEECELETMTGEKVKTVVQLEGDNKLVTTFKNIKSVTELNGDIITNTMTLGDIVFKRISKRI
# Description: (§1) A solution of the L-FABP (500 nM) and ANS (35 µM) was titrated with phytanic acid (0-6.4 µM) or fenofibrate (0-6 µM for the rat L-FABP and 0-4 µM for the human L-FABP) or fenofibric acid (0-300 µM for the rat L-FABP and 0-48 µM for the human L-FABP).
# [2] = biological target: Fatty acid-binding protein, liver [T94A] (Homo sapiens, UniProt P07148, T94A)
# Description: as §1
# [3] = biological target: T2, Fatty acid-binding protein, liver (Rattus norvegicus, UniProt P02692)
# T2 sequence (P02692 whole entry): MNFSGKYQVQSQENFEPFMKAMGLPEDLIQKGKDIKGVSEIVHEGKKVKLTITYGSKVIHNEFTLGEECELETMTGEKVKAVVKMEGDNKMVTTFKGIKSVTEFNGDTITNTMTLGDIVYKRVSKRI
# Description: as §1
# Sequence of Fatty acid-binding protein, liver [T94A] (P07148 whole entry T94A): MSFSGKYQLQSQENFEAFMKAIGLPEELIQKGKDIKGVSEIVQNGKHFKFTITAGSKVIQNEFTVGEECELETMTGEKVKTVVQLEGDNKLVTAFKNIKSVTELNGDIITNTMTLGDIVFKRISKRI
SMILES,pKi [1],pKi [2],pKi [3]
CC(C)OC(=O)C(C)(C)Oc1ccc(C(=O)c2ccc(Cl)cc2)cc1 [Finofibrate],7.82,7.82,7.00
CC(C)(Oc1ccc(C(=O)c2ccc(Cl)cc2)cc1)C(=O)O [alpha-1081],6.60,6.51,5.24
"CC(C)CCC[C@H](C)CCC[C@H](C)CCC[C@@H](C)CC(=O)O [3,7,11,15-tetramethylhexadecanoic acid]",7.46,7.42,7.43
